The text below walks through data of US7855200B2, “Method for treatment of gastric ulcers and ulcers induced by aspirin” (Council of Scientific and Industrial Research, priority 2006, dated 2010).

What is called inhibition is the share of the control response that was lost under treatment.

Assay type in all cases: in vivo, albino rats
Assay [1] deals with acetyl salicylic acid induced gastric lesions. Briefly: Acetyl salicylic acid (aspirin) induced gastric ulcer. Particulars: rats, aspirin 200 mg/kg. Also on record: Ulcer index Mean(SE): scale not given here. In a few lines: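 Rats in groups of 6 were dosed orally once a day for five days with test compounds suspended in 1% Tween 80. A 1% Tween 80 control group and a ranitidine 50 mg/kg group were included. Aspirin at 200 mg/kg was given orally 30 min after each dose. After a 24 hour fast, the rats were killed by cervical dislocation. Stomachs were opened along the greater curvature, rinsed with lukewarm saline, examined under a dissecting microscope and scored for ulcer index.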

A further assay has as its system Pylorus ligated rats. As to the kind of experiment: Pylorus ligated ulcers. Conditions: 4 hours after pylorus ligation. Summed up:
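Albino rats, fasted 48 h, dosed with test compound (25 mg/kg, or 50, 25, 15, 10 and 5 mg/kg) or ranitidine 50 mg/kg in 1% Tween 80 vehicle. Pylorus ligated under ether 1 h post-dose. Gastric contents collected 4 h later, centrifuged, and total acid titrated with 0.01N NaOH.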

Assay [2] deals with gastric ulceration in cold restraint rats. As to the kind of experiment: Cold restraint (stress) induced ulcers. Further details: Ulcer index Mean(SE): scale not given here. Conditions: rats, 4° C. for 2 hours. In a few lines: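 Albino rats, fasted 48 h with free water, dosed orally with compound at 25 mg/kg or at 50, 25, 15, 10 and 5 mg/kg in 1% Tween 80 vehicle. Water removed 1 h before restraint at 4° C for 2 h. Sacrificed 2 h after stress; stomachs opened along greater curvature and scored as mean ulcer index.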

The subject of assay [3] is gastric ulcers induced by aspirin, ethanol, stress and pylorus ligation. As to the kind of experiment: Antigastric ulcer screening by four different models (statements in words). Conditions: summary statement. From the text:
The compounds taken under study for antigastric ulcer screening by four different models were selected using experimental albino rats: • 1. Aspirin induced gastric ulceration • 2. Pylorus ligated gastric ulceration • 3. Ethanol induced gastric ulceration • 4. Stress induced gastric ulceration
The commercially available drug ranitidine (sigma), Omeprazole (sigma) and sucralfate (Merck) were used as reference standard in experimental models. The Tween-80 (SD fine chemicals) was used as vehicle for the administration of the drug, which is used as control.

Assay [4] deals with ethanol induced gastric ulcers. As to the kind of experiment: Ethanol induced ulcers. Particulars: rats, ethanol challenge; for Acidity Total mEg / Gastric content / pH: 4 hours after pylorus ligation. In a few lines:
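Rats in groups of 6, fasted 48 h, given Tween 80 (1%) vehicle, reference drugs, or test compounds at 25 mg/kg; lesions induced 1 h after ethanol challenge. Pylorus ligated under ether; 4 h later gastric contents centrifuged and total acid titrated with 0.01N NaOH.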

Setting [5] is: 25 mg/kg per orally daily for five days.

For the compound `COC(=O)C1OC(Oc2ccc3c(=O)cc(-c4ccccc4)oc3c2)C(O)C(O)C1O` (stereo not shown) [CGL, 3,4,5-trihydroxy-6-(4-oxo-2-phenyl-4-H-chromen-7-yoloxy) tetrahydro-pyran-2-carboxylicacid methyl ester], in assay [1] (setting [5]), the Inhibition % came to 70.46% and the “Ulcer index Mean(SE)” value is reported as 13.33. In the assay on Pylorus ligated rats (25 mg/kg), the “Acidity Total mEg” value is 40.00 (±1.15) m Eg, the Gastric content is 4.83 (±0.44), the Inhibition % worked out at 60.17% and the “Ulcer index Mean(SE)” value was 19.96 (±6.66). Also, the pH with Pylorus ligated rats (25 mg/kg) was 3.08 (±0.22). Besides, in assay [2] (25 mg/kg per orally), the Inhibition % is 50.22% and the “Ulcer index Mean(SE)” value turned out to be 20.00. Further, the “antiulcer activity (in words)” value in assay [3] is “very good activity”. Further, in assay [4] (25 mg/kg), the Inhibition % was determined as 62.50%, the “Ulcer index Mean(SE)” value is listed as 25.00 (±2.88), the “Acidity Total mEg” value is given as 39.00 (±1.52) mEg and the Gastric content was 4.60 (±0.20). Besides, in assay [4] (25 mg/kg), the pH was 3.91 (±0.21).
On to `COc1c(O)cc2oc(-c3ccccc3)cc(=O)c2c1O` [Oroxylin A, 5,7-Dihydroxy-6-methoxy-2-phenylchromen-4-one], for which the inhibition at 25 mg/kg in assay [1] (Rattus norvegicus, po, 120 h, 25 mg/kg per orally daily for five days) amounted to 5.81%; in the assay on Pylorus ligated rats (Rattus norvegicus, 25 mg/kg), 0%; in assay [2] (Rattus norvegicus, po, 25 mg/kg per orally), 5.26%; in assay [4] (Rattus norvegicus, 25 mg/kg) it was 27.5%. Moreover, the “Ulcer index Mean(SE)” value was 42.50 in assay [1] (setting [5]), 50.80 (±2.00) in the assay on Pylorus ligated rats (25 mg/kg), 38.57 in assay [2] (25 mg/kg per orally) and 48.33 (±3.33) in assay [4] (25 mg/kg). Besides, the “Acidity Total mEg” value in the assay with Pylorus ligated rats (25 mg/kg) is recorded as 55.24 (±2.40) m Eg; in assay [4] (25 mg/kg), 48.24 (±2.84) mEg. In addition, the Gastric content is reported as 2.30 (±0.42) with Pylorus ligated rats (25 mg/kg) and 4.0 (±0.45) in assay [4] (25 mg/kg). For the same compound, the pH is given as 2.74 (±0.24) with Pylorus ligated rats (25 mg/kg) and 3.19 (±0.73) in assay [4] (25 mg/kg).
For `CNC(=C[N+](=O)[O-])NCCSCc1ccc(CN(C)C)o1` [Ranitidine, ranitidine, reference compound], the inhibition at 50 mg/kg in assay [1] (Rattus norvegicus, po, 120 h, 50 mg/kg per orally daily for five days) was 74.2%; in the assay with Pylorus ligated rats (Rattus norvegicus, 50 mg/kg), 78.4%; in assay [2] (Rattus norvegicus, po, 50 mg/kg per orally) it was 78.8%; in assay [4] (Rattus norvegicus, 50 mg/kg), 61.3%. In addition, the “Ulcer index Mean(SE)” value in assay [1] (50 mg/kg per orally daily for five days) is recorded as 11.66; in the assay on Pylorus ligated rats (50 mg/kg) it was 10.83 (±3.21); in assay [2] (50 mg/kg per orally), 08.62; in assay [4] (50 mg/kg), 25.83 (±2.22). The “Acidity Total mEg” value is recorded as 31.8 (±1.91) m Eg in the assay on Pylorus ligated rats (50 mg/kg) and 26.74 (±1.54) mEg in assay [4] (50 mg/kg). The values for the Gastric content (in the assay on Pylorus ligated rats (50 mg/kg); in assay [4] (50 mg/kg)) were 1.82 (±0.44) and 5.0 (±0.48), respectively. Besides, the pH in the assay with Pylorus ligated rats (50 mg/kg) is 4.75 (±0.22); in assay [4] (50 mg/kg), 4.96 (±0.13).
